Reference: the kinase profiling compilation of Christmann-Franck et al. (2016)

Assays:
Test in all cases: KINOMEscan competition binding
Details in all cases: compound 10.0 µM
[1] = molecular target: ACVR2B (human) (UniProt Q13705)
[2] = molecular target: ACVRL1 (human) (UniProt P37023)
[3] = molecular target: ADCK4 (human) (UniProt Q96D53)
[4] = molecular target: AURKC (human) (UniProt Q9UQB9)
[5] = molecular target: BLK (human) (UniProt P51451)
[6] = molecular target: BRAF (human) (UniProt P15056)
[7] = molecular target: CDK4 CCND3 (human) (UniProt P11802+P30281)
[8] = molecular target: CDK8 (human) (UniProt P49336)
[9] = molecular target: CHEK1 (human) (UniProt O14757)
[10] = tested on: CPK1 (P.falciparum)
[11] = molecular target: CSNK1A1 (human) (UniProt P48729)
[12] = molecular target: CSNK1D (human) (UniProt P48730)
[13] = molecular target: CSNK1G3 (human) (UniProt Q9Y6M4)
[14] = molecular target: CSNK2A2 (human) (UniProt P19784)
[15] = molecular target: DCLK3 (human) (UniProt Q9C098)
[16] = molecular target: EPHA4 (human) (UniProt P54764)
[17] = molecular target: EPHB2 (human) (UniProt P29323)
[18] = molecular target: EPHB4 (human) (UniProt P54760)
[19] = molecular target: FGFR1 (human) (UniProt P11362)
[20] = tested on: KIT (human), P10721 [D816H]
[21] = molecular target: MAP4K5 (human) (UniProt Q9Y4K4)
[22] = molecular target: MAPK1 (human) (UniProt P28482)
[23] = molecular target: MAST1 (human) (UniProt Q9Y2H9)
[24] = molecular target: MYO3B (human) (UniProt Q8WXR4)
[25] = molecular target: NLK (human) (UniProt Q9UBE8)
[26] = molecular target: PAK2 (human) (UniProt Q13177)
[27] = molecular target: PAK7 (human) (UniProt Q9P286)
[28] = tested on: PIK3CA (human), P42336 [M1043I]
[29] = molecular target: PLK4 (human) (UniProt O00444)
[30] = molecular target: PTK2B (human) (UniProt Q14289)
[31] = molecular target: RIOK1 (human) (UniProt Q9BRS2)
[32] = molecular target: RIPK1 (human) (UniProt Q13546)
[33] = molecular target: STK16 (human) (UniProt O75716)
[34] = molecular target: STK33 (human) (UniProt Q9BYT3)
[35] = molecular target: TEC (human) (UniProt P42680)
[36] = molecular target: LCK (human) (UniProt P06239)
[37] = tested on: ABL1 (human), P00519 [F317I]

CSNK1G3 (human), sequence (Q9Y6M4 whole entry, looked up): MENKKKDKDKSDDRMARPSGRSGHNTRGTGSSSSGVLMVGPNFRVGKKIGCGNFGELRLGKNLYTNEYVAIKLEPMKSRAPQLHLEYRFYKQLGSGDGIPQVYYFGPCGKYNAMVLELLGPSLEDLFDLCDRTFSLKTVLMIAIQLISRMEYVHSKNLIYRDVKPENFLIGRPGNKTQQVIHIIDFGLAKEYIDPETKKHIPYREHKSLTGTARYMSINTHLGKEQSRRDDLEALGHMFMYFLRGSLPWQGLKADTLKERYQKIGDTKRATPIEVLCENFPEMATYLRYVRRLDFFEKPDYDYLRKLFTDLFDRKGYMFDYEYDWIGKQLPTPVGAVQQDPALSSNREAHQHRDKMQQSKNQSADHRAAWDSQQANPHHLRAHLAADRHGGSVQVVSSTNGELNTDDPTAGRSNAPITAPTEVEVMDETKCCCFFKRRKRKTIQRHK
PTK2B (human), sequence (Q14289 whole entry, looked up): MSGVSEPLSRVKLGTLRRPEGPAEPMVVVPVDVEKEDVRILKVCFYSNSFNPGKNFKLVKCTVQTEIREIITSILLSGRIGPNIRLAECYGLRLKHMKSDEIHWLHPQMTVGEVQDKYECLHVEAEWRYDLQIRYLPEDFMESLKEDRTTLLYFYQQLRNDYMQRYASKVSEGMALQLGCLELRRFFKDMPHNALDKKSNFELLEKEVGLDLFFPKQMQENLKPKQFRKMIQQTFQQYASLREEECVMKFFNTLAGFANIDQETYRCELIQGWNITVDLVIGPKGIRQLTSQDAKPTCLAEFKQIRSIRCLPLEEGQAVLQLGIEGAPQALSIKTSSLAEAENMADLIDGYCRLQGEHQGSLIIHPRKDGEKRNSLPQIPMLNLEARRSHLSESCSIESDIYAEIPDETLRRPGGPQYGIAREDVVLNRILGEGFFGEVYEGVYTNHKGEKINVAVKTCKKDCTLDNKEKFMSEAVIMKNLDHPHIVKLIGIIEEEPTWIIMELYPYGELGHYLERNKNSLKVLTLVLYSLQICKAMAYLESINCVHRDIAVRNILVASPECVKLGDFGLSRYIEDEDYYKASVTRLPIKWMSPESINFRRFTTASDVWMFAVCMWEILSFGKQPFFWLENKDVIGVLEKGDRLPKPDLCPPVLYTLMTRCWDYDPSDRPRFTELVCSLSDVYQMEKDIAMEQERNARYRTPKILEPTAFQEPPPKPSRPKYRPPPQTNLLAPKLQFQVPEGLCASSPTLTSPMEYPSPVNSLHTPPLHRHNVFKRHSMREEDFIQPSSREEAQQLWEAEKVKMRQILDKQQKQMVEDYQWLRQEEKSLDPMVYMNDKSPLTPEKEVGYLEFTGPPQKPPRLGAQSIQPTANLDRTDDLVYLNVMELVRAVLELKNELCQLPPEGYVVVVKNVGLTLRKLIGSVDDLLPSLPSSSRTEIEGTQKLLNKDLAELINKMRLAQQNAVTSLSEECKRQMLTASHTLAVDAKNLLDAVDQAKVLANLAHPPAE
EPHB2 (human), sequence (P29323 whole entry, looked up): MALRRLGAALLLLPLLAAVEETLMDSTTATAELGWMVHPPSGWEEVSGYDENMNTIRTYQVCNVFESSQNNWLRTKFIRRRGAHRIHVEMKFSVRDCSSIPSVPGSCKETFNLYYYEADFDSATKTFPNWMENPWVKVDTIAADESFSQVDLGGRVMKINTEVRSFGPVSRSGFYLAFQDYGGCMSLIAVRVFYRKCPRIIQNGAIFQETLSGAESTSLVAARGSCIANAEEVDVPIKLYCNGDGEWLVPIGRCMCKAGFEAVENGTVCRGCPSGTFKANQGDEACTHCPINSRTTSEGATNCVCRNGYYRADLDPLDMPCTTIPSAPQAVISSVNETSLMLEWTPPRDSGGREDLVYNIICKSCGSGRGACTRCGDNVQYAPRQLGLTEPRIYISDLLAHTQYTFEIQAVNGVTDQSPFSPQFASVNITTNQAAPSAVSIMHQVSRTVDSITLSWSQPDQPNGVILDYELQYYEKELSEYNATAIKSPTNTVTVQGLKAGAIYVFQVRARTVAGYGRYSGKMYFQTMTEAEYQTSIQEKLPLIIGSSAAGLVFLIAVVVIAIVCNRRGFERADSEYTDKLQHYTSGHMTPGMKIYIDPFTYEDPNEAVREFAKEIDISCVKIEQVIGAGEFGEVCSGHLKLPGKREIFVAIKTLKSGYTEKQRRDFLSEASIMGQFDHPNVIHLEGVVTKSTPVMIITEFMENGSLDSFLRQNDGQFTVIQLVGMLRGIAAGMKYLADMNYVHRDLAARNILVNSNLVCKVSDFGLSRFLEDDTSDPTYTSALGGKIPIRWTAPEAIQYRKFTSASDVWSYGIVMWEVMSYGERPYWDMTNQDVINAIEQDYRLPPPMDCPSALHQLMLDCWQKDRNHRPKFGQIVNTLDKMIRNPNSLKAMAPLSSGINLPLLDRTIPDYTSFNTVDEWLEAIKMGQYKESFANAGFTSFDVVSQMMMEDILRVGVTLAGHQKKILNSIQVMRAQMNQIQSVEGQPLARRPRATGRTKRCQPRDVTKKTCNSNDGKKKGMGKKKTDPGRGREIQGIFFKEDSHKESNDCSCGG
BRAF (human), sequence (P15056 whole entry, looked up): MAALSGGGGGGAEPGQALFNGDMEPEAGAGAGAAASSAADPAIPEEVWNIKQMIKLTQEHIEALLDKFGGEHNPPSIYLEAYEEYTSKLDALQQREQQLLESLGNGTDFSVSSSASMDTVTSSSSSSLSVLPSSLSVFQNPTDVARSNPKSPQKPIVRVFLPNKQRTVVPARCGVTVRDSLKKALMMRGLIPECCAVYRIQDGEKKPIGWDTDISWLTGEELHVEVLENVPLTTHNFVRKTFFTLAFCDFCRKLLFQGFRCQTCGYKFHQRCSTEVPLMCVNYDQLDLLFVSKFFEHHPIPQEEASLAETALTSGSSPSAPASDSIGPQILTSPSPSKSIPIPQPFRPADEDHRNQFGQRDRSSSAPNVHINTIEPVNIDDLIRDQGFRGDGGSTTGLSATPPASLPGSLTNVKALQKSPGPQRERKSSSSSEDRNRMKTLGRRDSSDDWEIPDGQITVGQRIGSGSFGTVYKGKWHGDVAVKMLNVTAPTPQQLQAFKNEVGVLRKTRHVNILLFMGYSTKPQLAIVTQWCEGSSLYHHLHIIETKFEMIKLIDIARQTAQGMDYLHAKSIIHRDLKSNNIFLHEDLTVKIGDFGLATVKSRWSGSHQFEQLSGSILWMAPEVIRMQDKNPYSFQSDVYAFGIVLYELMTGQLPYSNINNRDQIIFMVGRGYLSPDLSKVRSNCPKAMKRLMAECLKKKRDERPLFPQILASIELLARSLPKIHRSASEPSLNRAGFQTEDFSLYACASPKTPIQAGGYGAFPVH
TEC (human), sequence (P42680 whole entry, looked up): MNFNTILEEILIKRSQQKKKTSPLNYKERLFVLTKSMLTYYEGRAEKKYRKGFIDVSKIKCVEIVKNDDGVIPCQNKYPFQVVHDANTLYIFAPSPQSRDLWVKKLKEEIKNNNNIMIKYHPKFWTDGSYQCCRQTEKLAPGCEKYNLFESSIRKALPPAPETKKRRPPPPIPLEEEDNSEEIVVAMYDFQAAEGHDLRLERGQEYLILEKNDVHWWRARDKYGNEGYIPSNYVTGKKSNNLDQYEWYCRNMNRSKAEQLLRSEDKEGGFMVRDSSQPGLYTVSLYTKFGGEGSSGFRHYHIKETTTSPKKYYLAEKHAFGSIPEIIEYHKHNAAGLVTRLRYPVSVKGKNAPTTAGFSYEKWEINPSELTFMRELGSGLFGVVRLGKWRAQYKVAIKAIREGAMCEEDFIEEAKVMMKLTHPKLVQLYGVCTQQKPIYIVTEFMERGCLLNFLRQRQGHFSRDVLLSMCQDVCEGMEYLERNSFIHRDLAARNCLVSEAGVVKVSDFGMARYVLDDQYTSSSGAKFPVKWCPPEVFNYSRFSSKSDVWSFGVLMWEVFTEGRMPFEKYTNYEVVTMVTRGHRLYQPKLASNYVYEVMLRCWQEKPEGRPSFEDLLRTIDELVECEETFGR
CSNK2A2 (human), sequence (P19784 whole entry, looked up): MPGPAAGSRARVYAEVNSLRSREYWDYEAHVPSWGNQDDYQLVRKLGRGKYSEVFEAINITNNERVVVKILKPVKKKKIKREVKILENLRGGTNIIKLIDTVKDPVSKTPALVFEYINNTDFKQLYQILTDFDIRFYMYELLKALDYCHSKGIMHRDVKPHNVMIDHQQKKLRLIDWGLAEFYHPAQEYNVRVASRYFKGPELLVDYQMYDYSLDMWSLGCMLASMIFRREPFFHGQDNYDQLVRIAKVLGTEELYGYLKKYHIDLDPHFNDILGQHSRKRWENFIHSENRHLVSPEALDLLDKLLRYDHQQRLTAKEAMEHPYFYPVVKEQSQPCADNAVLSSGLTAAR
DCLK3 (human), sequence (Q9C098 whole entry, looked up): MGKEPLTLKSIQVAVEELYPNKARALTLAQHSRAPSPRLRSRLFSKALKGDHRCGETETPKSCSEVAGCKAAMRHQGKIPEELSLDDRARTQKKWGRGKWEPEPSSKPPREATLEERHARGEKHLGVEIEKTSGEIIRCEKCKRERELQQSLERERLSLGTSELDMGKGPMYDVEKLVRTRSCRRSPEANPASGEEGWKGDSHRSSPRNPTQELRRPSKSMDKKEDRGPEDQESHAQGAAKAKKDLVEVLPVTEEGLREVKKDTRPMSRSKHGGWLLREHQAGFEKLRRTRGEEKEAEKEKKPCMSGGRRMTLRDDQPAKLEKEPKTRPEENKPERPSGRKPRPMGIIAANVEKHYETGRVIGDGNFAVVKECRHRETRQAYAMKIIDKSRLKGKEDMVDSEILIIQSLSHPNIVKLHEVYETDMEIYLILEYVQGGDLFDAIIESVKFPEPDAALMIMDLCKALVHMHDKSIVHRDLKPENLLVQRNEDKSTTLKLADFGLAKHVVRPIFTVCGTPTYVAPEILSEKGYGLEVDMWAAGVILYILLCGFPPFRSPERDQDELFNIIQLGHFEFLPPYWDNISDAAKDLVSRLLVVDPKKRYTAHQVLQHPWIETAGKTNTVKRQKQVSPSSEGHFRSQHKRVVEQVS

| SMILES | kinase still bound, per cent of control [1] [%] | kinase still bound, per cent of control [2] [%] | kinase still bound, per cent of control [3] [%] | kinase still bound, per cent of control [4] [%] | kinase still bound, per cent of control [5] [%] | kinase still bound, per cent of control [6] [%] | kinase still bound, per cent of control [8] [%] | kinase still bound, per cent of control [12] [%] | kinase still bound, per cent of control [13] [%] | kinase still bound, per cent of control [14] [%] | kinase still bound, per cent of control [15] [%] | kinase still bound, per cent of control [16] [%] | kinase still bound, per cent of control [17] [%] | kinase still bound, per cent of control [18] [%] | kinase still bound, per cent of control [19] [%] | kinase still bound, per cent of control [22] [%] | kinase still bound, per cent of control [23] [%] | kinase still bound, per cent of control [24] [%] | kinase still bound, per cent of control [25] [%] | kinase still bound, per cent of control [26] [%] | also measured |
| --- | --- | --- | --- | --- | --- | --- | --- | --- | --- | --- | --- | --- | --- | --- | --- | --- | --- | --- | --- | --- | --- |
| COc1cc2c(Nc3ccc(NC(=O)c4ccccc4)cc3)ncnc2cc1OCCCN1CCOCC1 | 100 | 85 | 66 | 23 | 0.5 | 100 | 100 | 71 | 100 | 100 | 96 | 98 | 100 | 100 | 94 | 72 | 100 | 100 | 100 | 89 | kinase still bound, per cent of control [7]: 100%; kinase still bound, per cent of control [9]: 100%; kinase still bound, per cent of control [10]: 47%; kinase still bound, per cent of control [11]: 63%; kinase still bound, per cent of control [20]: 69%; kinase still bound, per cent of control [21]: 2.7%; kinase still bound, per cent of control [27]: 94%; kinase still bound, per cent of control [28]: 99%; kinase still bound, per cent of control [29]: 2%; kinase still bound, per cent of control [30]: 98%; kinase still bound, per cent of control [31]: 100%; kinase still bound, per cent of control [32]: 100%; kinase still bound, per cent of control [33]: 100%; kinase still bound, per cent of control [34]: 67%; kinase still bound, per cent of control [35]: 76% |
| CCc1nc(-c2cccc(C)c2)c(-c2ccnc(NC(=O)c3ccccc3)c2)s1 | 17 | 85 | 2.2 | 90 | 17 | 40 | 88 | 2 | 17 | 86 | 90 | 94 | 80 | 53 | 72 | 96 | 100 | 48 | 4 | 85 | kinase still bound, per cent of control [7]: 92%; kinase still bound, per cent of control [9]: 77%; kinase still bound, per cent of control [10]: 22%; kinase still bound, per cent of control [20]: 57%; kinase still bound, per cent of control [36]: 41%; kinase still bound, per cent of control [27]: 90%; kinase still bound, per cent of control [28]: 95%; kinase still bound, per cent of control [29]: 100%; kinase still bound, per cent of control [31]: 100%; kinase still bound, per cent of control [32]: 95%; kinase still bound, per cent of control [33]: 74%; kinase still bound, per cent of control [34]: 97%; kinase still bound, per cent of control [35]: 100% |
| CCOc1cc(N2CCC(O)CC2)ccc1Nc1ncc2c(n1)N(C)c1ccccc1C(=O)N2C | 100 | 100 | 100 | 100 | 100 | 100 | 100 | 100 | 100 | 100 | 100 | 100 | 100 | 100 | 100 | 100 | 100 | 100 | 100 | 100 | kinase still bound, per cent of control [37]: 30%; kinase still bound, per cent of control [9]: 100%; kinase still bound, per cent of control [36]: 100%; kinase still bound, per cent of control [21]: 100%; kinase still bound, per cent of control [27]: 100%; kinase still bound, per cent of control [28]: 100%; kinase still bound, per cent of control [29]: 2.8%; kinase still bound, per cent of control [30]: 100%; kinase still bound, per cent of control [31]: 100%; kinase still bound, per cent of control [32]: 100%; kinase still bound, per cent of control [33]: 100%; kinase still bound, per cent of control [34]: 100%; kinase still bound, per cent of control [35]: 100% |
| CCN(CCO)CCCOc1ccc2c(Nc3cc(CC(=O)Nc4cccc(F)c4)[nH]n3)ncnc2c1 | 100 | 97 | 83 | 19 | 9.6 | 100 | 75 | 71 | 100 | 86 | 86 | 92 | 93 | 100 | 85 | 100 | 90 | 100 | 100 | 100 | kinase still bound, per cent of control [7]: 100%; kinase still bound, per cent of control [10]: 63%; kinase still bound, per cent of control [11]: 49%; kinase still bound, per cent of control [20]: 34%; kinase still bound, per cent of control [21]: 0.95%; kinase still bound, per cent of control [27]: 100%; kinase still bound, per cent of control [28]: 100%; kinase still bound, per cent of control [30]: 100%; kinase still bound, per cent of control [31]: 100%; kinase still bound, per cent of control [32]: 100%; kinase still bound, per cent of control [33]: 100%; kinase still bound, per cent of control [34]: 51%; kinase still bound, per cent of control [35]: 78% |
